“Also recorded” adds a separate entry of the source. No end group written: not given here.
Legend:
Y2 [1] = settings: mammals; PYY3-36 formed by dipeptidyl peptidase IV cleavage; ref Mentlein et al., 1993; cited from earlier work
Source text: Studies of how NPY affects appetite have been conducted in several fish species (Narnaware et al., [2000]; Narnaware and Peter, [2001]) and the NPY system seems to influence food intake, although the orexigenic receptor subtypes have not been identified in the fish species studied. The receptors that in mammals are involved in inhibition of appetite have been known in zebrafish for several years and there have been some studies investigating how PYY can inhibit feeding. In mammals it seems like the main inhibitory action on appetite is performed by PYY3-36. This peptide is the result of cleava ...

Y4 = settings: PP, PYY and NPY compared, ref Lundell et al., 1995, 2002; cited from earlier work
Source text: Functional and evolutionary studies in mammals have shown that their Y4 receptor has evolved a partnership with pancreatic polypeptide (PP). It should be stressed that PYYb is not the teleost fish ortholog of PP, instead the latter is a tandem duplicate of PYY that probably took place early in the tetrapod lineage. […] Thus, the PP-Y4 preference seems to have evolved in mammals (Lundell et al., [1995], [2002]). One aim of the present study was to investigate ...

Y7 = assay: Competition binding with 125I-pPYY, zebrafish Y7 receptor (HEK 293-EBNA cells); settings: for Ki: zebrafish Y7, semi-stably expressed in HEK 293-EBNA cells, competition with 125I-pPYY, 25 mM HEPES pH 7.4, 2.5 mM CaCl2, 1 mM MgCl2, bacitracin, 2 h incubation, mean ± SEM, n = 5 (zfNPY), 3 (zfPYYa), 5 (zfPYYb)
Source text: (§1) The zebrafish receptors have previously been cloned and expressed in cell lines by our laboratory. The zebrafish Y8a and Y8b receptors were inserted in a pTEJ-8 vector and stably expressed in CHO-cells (Ringvall et al., [1997]; Berglund et al., [2000]). Y7 has been inserted in a pCEP4 vector and semi-stably expressed in HEK 293-EBNA cells (Fredriksson et al., [2004]). The zebrafish Y4 receptor coding region was inserted in a pTEJ-8 vector (Starback et al., [1999]) and transient expressed in HEK cells. The cell-lines were grown according to the recommendations of the manufacturer. Ninety percent of the confluent cells were harvested and mixed with 100 μl 25 mM HEPES buffer (pH 7.4 and 2.5 mM CaCl2 and 1 mM MgCl2) and stored at −80°C.
Thawed aliquots of transfected cells were mixed with 1 ml 25 mM HEPES buffer (pH 7.4, 2.5 mM CaCl2, 1 mM MgCl2 and 0.2 g/l bacitracin). The samples were homogenized and another 1 ml buffer was added. ^125I-pPYY was used as radioligand in all experiments, radioligand, and unlabeled ligands (serial concentrations of zfNPY, zfPYYa, and zfPYYb respectively) and cells were mixed at the proportion 2:1:1 in 100 μl reactions followed by 2 h incubation. The zebrafish NPY (zfNPY) and PYYa (zfPYYa) were synthesized at Eli Lilly and Company. The zebrafish PYYb (zfPYYb) was supplied in a crude form by GL Biochem Shanghai and purified as previously described (Fredriksson et al., [2006]). The incubation was terminated by rapid filtration through GF/C filters pre-soaked in 0.3% polyethyleneimin, using a TOMTEC cell harvester (Orange, CT, USA). The filters were washed with 50 mM Tris-HCl (pH 7.4) and dried at 50°C for 30 min. Filters were treated with MeltiLex A melt on scintillator sheets (Perkin Elmer, Boston, MA, USA). The radioactivity was measured using a Wallac 1450 Betaplate counter and the results were analyzed using Prism 4.0 software package (GraphPad, San Diego, CA, USA). The pKi values were compared to each other using One-Way ANOVA followed by Tukey-Kramer Multiple Comparison Test (GraphPad, San Diego, CA, USA).
The zebrafish receptors were expressed in mammalian cells and the membrane fraction was used for binding experiments. Competition binding experiments were performed using the three endogenous ligands NPY, PYYa and PYYb in competition with iodinated porcine PYY. The mature 36 amino acid PYYb peptide has fourteen differences compared to NPY and seven when compared with PYYa (see Figure 1). PYYa differs from NPY at nine positions. Thus, PYYb has clearly changed more than PYYa after duplication of their common ancestral gene.

Y8a (Yc) = assay: Competition binding with 125I-pPYY, zebrafish Y8a receptor (CHO-cells)
Source text: as §1
(§2) Thawed aliquots of transfected cells were mixed with 1 ml 25 mM HEPES buffer (pH 7.4, 2.5 mM CaCl2, 1 mM MgCl2 and 0.2 g/l bacitracin). The samples were homogenized and another 1 ml buffer was added. ^125I-pPYY was used as radioligand in all experiments, radioligand, and unlabeled ligands (serial concentrations of zfNPY, zfPYYa, and zfPYYb respectively) and cells were mixed at the proportion 2:1:1 in 100 μl reactions followed by 2 h incubation. […] The radioactivity was measured using a Wallac 1450 Betaplate counter and the results were analyzed using Prism 4.0 software package (GraphPad, San Diego, CA, USA). […]

Y8b (Yb) = assay: Competition binding with 125I-pPYY, zebrafish Y8b receptor (CHO-cells); settings: stably expressed in CHO-cells, competition with 125I-pPYY, 25 mM HEPES pH 7.4, 2.5 mM CaCl2, 1 mM MgCl2, bacitracin, 2 h incubation, mean ± SEM, n = 4 (zfNPY), 3 (zfPYYa), 4 (zfPYYb)
Source text: as §1, §2

Y4(Ya) = assay: Competition binding with 125I-pPYY, zebrafish Y4 receptor (HEK cells); settings: transiently expressed in HEK cells, competition with 125I-pPYY, 25 mM HEPES pH 7.4, 2.5 mM CaCl2, 1 mM MgCl2, bacitracin, 2 h incubation, mean ± SEM, n = 3 (zfNPY), 3 (zfPYYa), 3 (zfPYYb)
Source text: as §1, §2

Y2 [2] = settings: zebrafish Y2, ref Fredriksson et al., 2006, cited from earlier work
Source text: The neuropeptide Y (NPY) system influences numerous physiological functions including feeding behavior, endocrine regulation, and cardiovascular regulation. In jawed vertebrates it consists of 3–4 peptides and 4–7 receptors. Teleost fishes have unique duplicates of NPY and PYY as well as the Y8 receptor. In the zebrafish, the NPY system consists of the peptides NPYa, PYYa, and PYYb (NPYb appears to have been lost) and at least seven NPY receptors: Y1, Y2, Y2-2, Y4, Y7, Y8a, and Y8b. Previously PYYb binding has been reported for Y2 and Y2-2. To search for peptide-receptor preferences, we have i ... || The main objective of this study was to examine the affinity of PYYb for the Y4, Y7, Y8a, and Y8b receptors, and to compare it to the other two endogenous peptides, NPY and PYYa. […] The zebrafish Y7 receptor is 50% identical to zebrafish Y2 and PYYa has low affinity for both of these. This observation will be interesting to correlate with the physiological roles of the peptides and receptors in z ... || (+ 1 further places)

PYY3-36
selectivity for Y2 over the other receptor subtypes (Y2 [1]): selectivity for Y2 over the other receptor subtypes

chicken PP: chicken pancreatic polypeptide (GPSQPTYPGDDAPVEDLIRFYNDLQQYLNVVTRHRY; ends and bridges not checked; UniProt P68248 26-61, looked up)
affinity for chicken Y4 (Y4): equal affinities

zfNPY: endogenous zebrafish neuropeptide Y, synthesized at Eli Lilly and Company
Ki (Y7): 0.57 ± 0.16 nM
Ki (Y8a (Yc); zebrafish Y8a (Yc), stably expressed in CHO-cells, competition with 125I-pPYY, 25 mM HEPES pH 7.4, 2.5 mM CaCl2, 1 mM MgCl2, bacitracin, 2 h incubation, mean ± SEM, n = 7 (zfNPY), 6 (zfPYYa), 4 (zfPYYb)): 0.21 ± 0.07 nM
Ki (Y8b (Yb)): 0.13 ± 0.04 nM
Ki (Y4(Ya)): 0.033 ± 0.005 nM

zfPYYa: endogenous zebrafish PYYa, synthesized at Eli Lilly and Company
Ki (Y7): 1.82 nM
fold lower affinity for Y7 than NPY and PYYb (Y7; zebrafish Y7, PYYa vs NPY and PYYb): 3 fold
affinity for Y7 compared with NPY and PYYb (Y7; zebrafish Y7, pKi compared by One-Way ANOVA, Tukey-Kramer): significantly lower affinity; also recorded: low affinity
affinity for Y8a compared with the other two peptides (Y8a (Yc); zebrafish Y8a, PYYa vs NPY and PYYb): slightly lower than the other two peptides
Ki (Y8b (Yb)): 0.25 ± 0.12 nM
affinity for Y2 (Y2 [2]; previously reported): 3 nM
preference of Y2 / affinity for Y2 (Y2 [2]): low affinity
Ki (Y4(Ya)): 0.034 ± 0.009 nM

From publication PMC3598007, “Interactions of zebrafish peptide YYb with the neuropeptide Y-family receptors Y4, Y7, Y8a, and Y8b” (Frontiers in Neuroscience, 2013)
